Source: patent US10358449B2, “Xanthine derivative” (priority 2015, dated 2019)
Where two headings read alike, the source gives them in different places. Marks after values point to notes of the source that are not given here.

How the values were obtained:
[1] = target: humanized recombinant DPP8 (Homo sapiens (Human), UniProt Q6V1X1); test: Drug selectivity experiment in vitro, DPP8; assay type: biochemical
hERG potassium channel = hERG potassium channel (Homo sapiens (Human), UniProt Q12809); test: hERG toxicity, manual patch clamp in CHO cells stably transfected with hERG; assay type: cell-based
Text: 1. Test method: testing the effect of the compounds on hERG […] in stable CHO cell lines transfected hERG […] by manual patch clamp method, and then calculating IC50 value of the compounds to hERG. Conventional Patch-Clamp was a technology that has been disclosed, was the most important technical means for studying ion channels and was universally recognized as the “gold standard” for ion channel researches and was the most accurate method for measuring ion channel. It was applicable to study the action mechanism of the effect of compound and the ion channel, and also could be used for toxicity evaluation and structure optimization of candidate drugs in the process of new drugs. In cardiomyocytes, human Ether-a-go-go Related Gene (hERG) coded potassium channel mediates a delayed rectification potassium current (IKr), IKr inhibition was the most important mechanism leading to QT interval prolongation by drugs. hERG could be inhibited by compounds of diversified structures, due to its specific molecular structure. […] The effects of compounds on hERG could be tested and relevant IC50 could be determined by conventional patch-clamp, using CHO cell lines that had been stably transfected hERG potassium channel.

[2] = tested on: diabetic mice (B6.BKS(D)-Leprdb/JNju); test: Glucose tolerance test of diabetic mice (Table 5); assay type: in vivo, mouse; set-up: AUC0-120 min: unit not given beside the values
Procedure: (§1) 2. Experimental method: normal mice, obese mice and diabetic mice were used for studying glucose tolerance tests Experimental process of OGTT (Oral Glucose Tolerance Test): fasting for 6 hours before the test begins, 60 min after drug administration, glucose was administrated by gavage (drug concentration 0.6 mg/ml, administration volume 5 ml/kg) (2 g/kg glucose was administrated to diabetic mice; 2 g/kg glucose was administrated to obese mice; and 5 g/kg glucose was administrated to normal mice), blood glucose values at 0 min, 15 min, 30 min, 45 min, 60 min and 120 min are respectively determined after glucose administration, […]

CYP3A4 = CYP3A4 (Homo sapiens (Human), UniProt P08684); test: biochemical; assay type: in vitro ADME
CYP3A4, sequence (P08684 whole entry): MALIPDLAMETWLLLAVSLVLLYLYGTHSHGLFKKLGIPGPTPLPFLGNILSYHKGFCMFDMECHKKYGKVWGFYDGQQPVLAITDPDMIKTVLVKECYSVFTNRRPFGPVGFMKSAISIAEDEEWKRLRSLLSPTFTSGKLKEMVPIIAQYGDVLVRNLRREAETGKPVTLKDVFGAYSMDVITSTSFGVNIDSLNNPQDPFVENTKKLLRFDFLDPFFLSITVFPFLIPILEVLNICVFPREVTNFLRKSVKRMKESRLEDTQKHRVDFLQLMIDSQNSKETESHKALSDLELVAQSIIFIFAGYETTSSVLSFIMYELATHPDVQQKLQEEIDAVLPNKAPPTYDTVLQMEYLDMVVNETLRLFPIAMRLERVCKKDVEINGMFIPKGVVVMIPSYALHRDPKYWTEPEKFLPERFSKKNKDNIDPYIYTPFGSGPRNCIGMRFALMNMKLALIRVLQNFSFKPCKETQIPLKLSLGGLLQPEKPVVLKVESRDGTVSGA
Procedure: (§2) 1. Test method: human liver microsomes were used to carry out inhibition activity test of the compounds to CYP enzyme. With the system for incubating human liver microsomes in vitro, the content variation of phenacetin, diclofenac, S-mephenytoin, dextromethorphan and midazolam, which were substrates of human liver microsomes CYP1A2, CYP2C9, CYP2C19, CYP2D6, CYP3A4, were measured simultaneously by cocktail probe drug method (which is a disclosed technology), the effects of TSL-0319 under different concentrations on activity of human liver microsomes CYP1A2, CYP2C9, CYP2C19, CYP2D6, CYP3A4 subtypes are evaluated and relevant IC50 was measured.

CYP2D6 = CYP2D6 (Homo sapiens (Human), UniProt P10635); test: biochemical; assay type: in vitro ADME
CYP2D6, sequence (P10635 whole entry): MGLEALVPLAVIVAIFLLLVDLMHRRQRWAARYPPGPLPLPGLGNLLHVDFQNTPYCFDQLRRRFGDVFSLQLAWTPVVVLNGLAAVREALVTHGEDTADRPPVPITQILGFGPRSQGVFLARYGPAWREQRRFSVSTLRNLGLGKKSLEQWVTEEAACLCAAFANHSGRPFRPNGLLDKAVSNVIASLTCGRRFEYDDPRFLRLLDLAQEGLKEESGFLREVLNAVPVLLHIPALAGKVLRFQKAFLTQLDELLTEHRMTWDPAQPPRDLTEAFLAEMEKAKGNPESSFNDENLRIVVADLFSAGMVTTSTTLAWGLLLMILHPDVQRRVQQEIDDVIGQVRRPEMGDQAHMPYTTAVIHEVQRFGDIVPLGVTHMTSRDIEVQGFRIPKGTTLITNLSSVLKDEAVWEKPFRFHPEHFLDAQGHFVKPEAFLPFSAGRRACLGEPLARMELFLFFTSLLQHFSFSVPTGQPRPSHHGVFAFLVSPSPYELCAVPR
Procedure: as §2

CYP2C19 = CYP2C19 (Homo sapiens (Human), UniProt P33261); test: biochemical; assay type: in vitro ADME
CYP2C19, sequence (P33261 whole entry): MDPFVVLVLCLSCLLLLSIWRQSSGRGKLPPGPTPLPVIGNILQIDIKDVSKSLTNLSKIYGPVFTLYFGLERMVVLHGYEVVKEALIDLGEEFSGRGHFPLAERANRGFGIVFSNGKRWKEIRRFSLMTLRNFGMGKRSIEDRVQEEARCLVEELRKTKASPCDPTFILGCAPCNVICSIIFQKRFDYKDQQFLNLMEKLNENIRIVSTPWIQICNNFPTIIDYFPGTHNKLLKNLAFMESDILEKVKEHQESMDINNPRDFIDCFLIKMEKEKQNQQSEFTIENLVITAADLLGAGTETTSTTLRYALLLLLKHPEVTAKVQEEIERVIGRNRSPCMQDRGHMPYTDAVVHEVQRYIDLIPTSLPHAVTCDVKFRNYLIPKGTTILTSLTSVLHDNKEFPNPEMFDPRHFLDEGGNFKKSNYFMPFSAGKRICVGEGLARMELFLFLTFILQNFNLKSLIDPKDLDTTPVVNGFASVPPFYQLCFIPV
Procedure: as §2

CYP2C9 = CYP2C9 (Homo sapiens (Human), UniProt P11712); test: biochemical; assay type: in vitro ADME
CYP2C9, sequence (P11712 whole entry): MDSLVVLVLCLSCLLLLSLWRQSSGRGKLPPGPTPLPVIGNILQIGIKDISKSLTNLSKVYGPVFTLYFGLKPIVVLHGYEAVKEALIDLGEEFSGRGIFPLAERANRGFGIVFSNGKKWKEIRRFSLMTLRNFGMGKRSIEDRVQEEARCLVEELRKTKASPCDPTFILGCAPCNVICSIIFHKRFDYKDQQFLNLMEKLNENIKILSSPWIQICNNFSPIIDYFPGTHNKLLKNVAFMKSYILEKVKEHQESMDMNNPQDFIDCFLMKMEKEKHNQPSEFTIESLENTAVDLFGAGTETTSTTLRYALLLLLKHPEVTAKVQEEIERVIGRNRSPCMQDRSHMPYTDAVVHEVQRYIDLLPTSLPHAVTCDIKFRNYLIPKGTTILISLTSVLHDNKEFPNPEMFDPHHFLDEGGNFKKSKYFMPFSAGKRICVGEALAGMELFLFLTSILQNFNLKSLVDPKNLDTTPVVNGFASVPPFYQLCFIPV
Procedure: as §2

CYP1A2 = CYP1A2 (Homo sapiens (Human), UniProt P05177); test: biochemical; assay type: in vitro ADME
CYP1A2, sequence (P05177 whole entry): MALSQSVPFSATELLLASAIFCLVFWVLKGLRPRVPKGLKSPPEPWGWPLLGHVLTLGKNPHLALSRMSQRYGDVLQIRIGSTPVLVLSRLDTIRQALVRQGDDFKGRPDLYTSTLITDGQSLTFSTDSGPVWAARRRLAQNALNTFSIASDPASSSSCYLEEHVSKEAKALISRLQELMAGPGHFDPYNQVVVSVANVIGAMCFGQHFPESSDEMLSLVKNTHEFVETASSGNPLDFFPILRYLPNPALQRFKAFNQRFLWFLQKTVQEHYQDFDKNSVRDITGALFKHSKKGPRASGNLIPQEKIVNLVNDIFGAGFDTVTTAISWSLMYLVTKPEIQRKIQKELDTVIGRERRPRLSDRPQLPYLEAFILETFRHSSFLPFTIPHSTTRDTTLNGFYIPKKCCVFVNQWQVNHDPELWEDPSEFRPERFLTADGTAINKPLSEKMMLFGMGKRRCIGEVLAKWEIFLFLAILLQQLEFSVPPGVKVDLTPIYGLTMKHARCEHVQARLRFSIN
Procedure: as §2

normal mice (C57BL/6J) = test: Oral glucose tolerance test of normal mice; assay type: in vivo, mouse; set-up: AUC0-120 min: unit not given beside the values
Procedure: as §1

[3] = target: humanized recombinant DPP-IV (Homo sapiens (Human), UniProt P27487); test: DPP-IV activity inhibition test in vitro (DPPIV-Glo luminescence); assay type: biochemical
humanized recombinant DPP-IV, sequence (P27487 whole entry): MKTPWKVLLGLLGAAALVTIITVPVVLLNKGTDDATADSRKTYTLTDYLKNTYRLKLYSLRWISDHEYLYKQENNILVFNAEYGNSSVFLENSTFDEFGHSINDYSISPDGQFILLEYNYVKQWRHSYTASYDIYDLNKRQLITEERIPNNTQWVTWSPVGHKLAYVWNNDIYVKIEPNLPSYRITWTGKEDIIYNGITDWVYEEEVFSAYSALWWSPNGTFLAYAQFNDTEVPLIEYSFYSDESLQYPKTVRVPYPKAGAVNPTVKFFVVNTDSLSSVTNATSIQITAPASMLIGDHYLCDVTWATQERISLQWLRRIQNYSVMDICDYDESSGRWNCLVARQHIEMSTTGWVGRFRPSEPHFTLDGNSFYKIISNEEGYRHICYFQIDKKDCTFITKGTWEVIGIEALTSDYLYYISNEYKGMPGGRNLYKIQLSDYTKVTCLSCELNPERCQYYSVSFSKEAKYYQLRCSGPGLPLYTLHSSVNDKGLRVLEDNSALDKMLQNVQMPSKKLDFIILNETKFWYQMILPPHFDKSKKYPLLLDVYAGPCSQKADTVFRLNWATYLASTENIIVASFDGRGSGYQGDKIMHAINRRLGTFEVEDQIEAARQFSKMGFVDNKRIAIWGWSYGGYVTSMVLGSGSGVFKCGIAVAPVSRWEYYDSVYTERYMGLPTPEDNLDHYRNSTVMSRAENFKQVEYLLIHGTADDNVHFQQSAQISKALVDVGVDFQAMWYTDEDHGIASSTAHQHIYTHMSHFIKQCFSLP
Procedure: (1) DPP-IV Activity Inhibition Tests In Vitro
DPP-IV could hydrolyze Gly-Pro-Aminoluciferin at room temperature to generate Aminoluciferin, which could produce “glow type” luminescent signals in a luciferase reaction system provided by a DPPIV-Glo™ protease test kit, and the strength of the luminescent signals was in direct proportion to the enzyme activity of DPP-IV.
2.1 humanized recombinant DPP-IV: SIGMA product, article number D3446-10UG.
2.2 DPPIV-Glo™ protease detection kit: Promega product, article number G8351.
3.2 Diluting dipeptidyl peptidase IV (Sigma) to 0.2 ng/ml solution with 10 mM Tris-HCl (pH 8.0), adding the samples to be detected in, per well 25 μl. […] Experimental Results

humanized recombinant DPP8, sequence (Q6V1X1 whole entry): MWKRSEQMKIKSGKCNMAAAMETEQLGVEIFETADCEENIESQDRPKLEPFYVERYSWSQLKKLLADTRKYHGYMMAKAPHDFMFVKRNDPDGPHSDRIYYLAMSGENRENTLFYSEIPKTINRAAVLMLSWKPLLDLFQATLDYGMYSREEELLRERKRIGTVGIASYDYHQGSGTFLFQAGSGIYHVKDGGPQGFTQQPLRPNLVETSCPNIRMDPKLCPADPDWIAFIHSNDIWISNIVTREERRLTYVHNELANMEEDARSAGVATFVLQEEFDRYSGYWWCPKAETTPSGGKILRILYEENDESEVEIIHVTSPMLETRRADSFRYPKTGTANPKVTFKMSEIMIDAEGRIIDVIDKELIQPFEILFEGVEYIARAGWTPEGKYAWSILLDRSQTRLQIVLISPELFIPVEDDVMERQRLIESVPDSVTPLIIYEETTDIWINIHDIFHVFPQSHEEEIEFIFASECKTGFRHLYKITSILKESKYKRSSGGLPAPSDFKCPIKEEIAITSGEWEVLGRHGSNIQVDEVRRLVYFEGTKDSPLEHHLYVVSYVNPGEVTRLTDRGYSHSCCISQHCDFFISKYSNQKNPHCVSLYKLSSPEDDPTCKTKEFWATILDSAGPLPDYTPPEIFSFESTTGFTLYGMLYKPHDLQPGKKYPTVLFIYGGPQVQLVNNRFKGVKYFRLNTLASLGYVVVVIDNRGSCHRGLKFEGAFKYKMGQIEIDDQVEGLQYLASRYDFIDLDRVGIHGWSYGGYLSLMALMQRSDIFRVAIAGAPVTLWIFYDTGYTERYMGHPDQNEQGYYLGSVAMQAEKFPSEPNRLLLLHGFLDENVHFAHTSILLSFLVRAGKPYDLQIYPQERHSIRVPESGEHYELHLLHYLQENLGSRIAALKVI

IC50 [1]: > 100 µM
Selectivity (DPP8 column) ([1]; DPP8 versus DPP4): > 1250000
inhibition effect to DPP8 ([1]; in words): no inhibition effect
IC50 (CYP3A4): > 50 µM
inhibition at 0.05 µM (CYP3A4; human, microsomes): 0%
inhibition at 0.15 µM (CYP3A4; human, microsomes): 0%
inhibition at 0.5 µM (CYP3A4; human, microsomes): 4%
inhibition at 1.5 µM (CYP3A4; human, microsomes): 4.4%
inhibition at 5 µM (CYP3A4; human, microsomes): 8.7%
inhibition at 15 µM (CYP3A4; human, microsomes): 17.9%
inhibition at 50 µM (CYP3A4; human, microsomes): 44.6%
IC50 (CYP2D6): > 50 µM
inhibition at 0.05 µM (CYP2D6; human, microsomes): 0%
inhibition at 0.15 µM (CYP2D6; human, microsomes): 0%
inhibition at 0.5 µM (CYP2D6; human, microsomes): 0%
inhibition at 1.5 µM (CYP2D6; human, microsomes): 0%
inhibition at 5 µM (CYP2D6; human, microsomes): 0%
inhibition at 15 µM (CYP2D6; human, microsomes): 3%
inhibition at 50 µM (CYP2D6; human, microsomes): 14.6%
IC50 (CYP2C19): > 50 µM
inhibition at 0.05 µM (CYP2C19; human, microsomes): 0%
inhibition at 1.5 µM (CYP2C19; human, microsomes): 3.3%
inhibition at 5 µM (CYP2C19; human, microsomes): 8.2%
inhibition at 15 µM (CYP2C19; human, microsomes): 14%
inhibition at 50 µM (CYP2C19; human, microsomes): 2.9%
IC50 (CYP2C9): > 50 µM
inhibition at 0.05 µM (CYP2C9; human, microsomes): 0%
inhibition at 0.15 µM (CYP2C9; human, microsomes): 0%
inhibition at 0.5 µM (CYP2C9; human, microsomes): 3.2%
inhibition at 1.5 µM (CYP2C9; human, microsomes): 5.7%
inhibition at 5 µM (CYP2C9; human, microsomes): 10.5%
inhibition at 15 µM (CYP2C9; human, microsomes): 12.1%
inhibition at 50 µM (CYP2C9; human, microsomes): 13.9%
IC50 (CYP1A2): > 50 µM
inhibition at 0.05 µM (CYP1A2; human, microsomes): 0%
inhibition at 0.15 µM (CYP1A2; human, microsomes): 0%
inhibition at 0.5 µM (CYP1A2; human, microsomes): 2.2%
inhibition at 1.5 µM (CYP1A2; human, microsomes): 4.2%
inhibition at 5 µM (CYP1A2; human, microsomes): 6.6%
inhibition at 15 µM (CYP1A2; human, microsomes): 20.8%
inhibition at 50 µM (CYP1A2; human, microsomes): 41.8%
IC50 ([3]; DPP-IV, Table 1, read-out: IC50): 80 pM
IC50 ([3]; Table 2, read-out: DPP4 IC50): 80 pM
DPP-IV activity compared with linagliptin ([3]; in words): better activity than linagliptin
Structure (SMILES): CC#CCn1c(N2CCC[C@@H](N)C2)nc2c1c(=O)n(Cc1nccnc1C#N)c(=O)n2C [Compound I-3, 1-[(3-cyano-pyrazine-2-yl)methyl]-3-methyl-7-(2-butyne-1-yl)-8-[(R)-3-amino-piperidine-1-yl]-xanthine]
inhibition rate to hERG (hERG potassium channel; 1 μM concentration): 0%
IC50 (hERG potassium channel; manual patch clamp, CHO cells): 79.8 µM
hypoglycemic effect ([2]; Table 5 mice (diabetic), in words): good hypoglycemic effect
Blood glucose concentration 0 min ([2]; diabetic mice B6.BKS(D)-Leprdb/JNju, drug at -60 min (0.6 mg/ml, 5 ml/kg), 2 g/kg glucose at 0 min): 11.84 mmol/L
Blood glucose concentration 15 min ([2]; diabetic mice, 15 min after glucose): 32.23 mmol/L
Blood glucose concentration 30 min ([2]; diabetic mice, 30 min after glucose): 22.80* mmol/L
Blood glucose concentration 45 min ([2]; diabetic mice, 45 min after glucose): 15.70*** mmol/L
Blood glucose concentration 60 min ([2]; diabetic mice, 60 min after glucose): 13.80*** mmol/L
Blood glucose concentration 120 min ([2]; diabetic mice, 120 min after glucose): 8.75** mmol/L
AUC0-120 min ([2]; diabetic mice, blood glucose AUC): 1930**
Blood glucose concentration 0 min (normal mice (C57BL/6J); normal mice C57BL/6J, drug at -60 min (0.6 mg/ml, 5 ml/kg), 5 g/kg glucose at 0 min): 8.88* mmol/L
hypoglycemic effect (normal mice (C57BL/6J); normal mice, in words): good hypoglycemic effect
Blood glucose concentration 15 min (normal mice (C57BL/6J); normal mice, 15 min after glucose): 14.6*** mmol/L
Blood glucose concentration 30 min (normal mice (C57BL/6J); normal mice, 30 min after glucose): 11.0*** mmol/L
Blood glucose concentration 45 min (normal mice (C57BL/6J); normal mice, 45 min after glucose): 9.23*** mmol/L
Blood glucose concentration 60 min (normal mice (C57BL/6J); normal mice, 60 min after glucose): 9.82*** mmol/L
Blood glucose concentration 120 min (normal mice (C57BL/6J); normal mice, 120 min after glucose): 7.58 mmol/L
AUC0-120 min (normal mice (C57BL/6J); normal mice, blood glucose AUC): 1185***
